The CheMixHub viscosity set
± gives the uncertainty stated by the source.

Experiment: xn = mol fraction of the nth substance listed

C=Cc1ccccc1 + c1ccccc1
viscosity [mPa·s], 101 kPa
Conditions	x2 = 0.1362	x2 = 0.2498	x2 = 0.3047	x2 = 0.4109	x2 = 0.5207	x2 = 0.5834	x2 = 0.7114	x2 = 0.7924	x2 = 0.8831
298.15 K	0.672 ± 0.009	0.654 ± 0.009	0.645 ± 0.009	0.633 ± 0.009	0.623 ± 0.009	0.618 ± 0.009	0.608 ± 0.009	0.605 ± 0.009	0.604 ± 0.009
303.15 K	0.629 ± 0.009	0.61 ± 0.009	0.6 ± 0.009	0.589 ± 0.009	0.577 ± 0.008	0.57 ± 0.008	0.56 ± 0.008	0.556 ± 0.008	0.555 ± 0.008
308.15 K	0.59 ± 0.008	0.57 ± 0.008	0.56 ± 0.008	0.548 ± 0.008	0.537 ± 0.008	0.53 ± 0.008	0.52 ± 0.008	0.515 ± 0.008	0.514 ± 0.008
313.15 K	0.54 ± 0.008	0.518 ± 0.008	0.51 ± 0.008	0.499 ± 0.008	0.487 ± 0.008	0.48 ± 0.008	0.47 ± 0.008	0.466 ± 0.008	0.465 ± 0.008

C=Cc1ccccc1 + CCCCCCCCC
viscosity [mPa·s], 101.33 kPa
Conditions	x1 = 0.0999	x1 = 0.2002	x1 = 0.2986	x1 = 0.3964	x1 = 0.4953	x1 = 0.5967	x1 = 0.6984	x1 = 0.7933	x1 = 0.8971
298.15 K	0.638 ± 0.011	0.626 ± 0.011	0.618 ± 0.011	0.613 ± 0.011	0.614 ± 0.011	0.616 ± 0.011	0.628 ± 0.011	0.642 ± 0.011	0.669 ± 0.011
303.15 K	0.606 ± 0.011	0.588 ± 0.011	0.582 ± 0.011	0.577 ± 0.011	0.579 ± 0.011	0.581 ± 0.011	0.593 ± 0.011	0.606 ± 0.011	0.628 ± 0.011
308.15 K	0.564 ± 0.011	0.551 ± 0.011	0.547 ± 0.011	0.544 ± 0.011	0.544 ± 0.011	0.547 ± 0.011	0.558 ± 0.011	0.57 ± 0.011	0.591 ± 0.011

BrC(Br)Br + ClC(Cl)(Cl)Cl
Conditions	viscosity [mPa·s]
298 K, 101.3 kPa, x1 = 0.1194	0.965 ± 0.01
298 K, 101.3 kPa, x1 = 0.2186	1.037 ± 0.011
298 K, 101.3 kPa, x1 = 0.3128	1.115 ± 0.012
298 K, 101.3 kPa, x1 = 0.4431	1.231 ± 0.014
298 K, 101.3 kPa, x1 = 0.5248	1.308 ± 0.015
298 K, 101.3 kPa, x1 = 0.6217	1.397 ± 0.016
298 K, 101.3 kPa, x1 = 0.7153	1.477 ± 0.018
298 K, 101.3 kPa, x1 = 0.8068	1.609 ± 0.02
298 K, 101.3 kPa, x1 = 0.8986	1.753 ± 0.022
318 K, 101.33 kPa, x1 = 0.1597	0.8215 ± 0.039
318 K, 101.33 kPa, x1 = 0.3179	0.9131 ± 0.039
318 K, 101.33 kPa, x1 = 0.5191	1.056 ± 0.039
318 K, 101.33 kPa, x1 = 0.6651	1.164 ± 0.039
318 K, 101.33 kPa, x1 = 0.8607	1.328 ± 0.039

BrC(Br)Br + CCCCCCO
viscosity [mPa·s], 101.3 kPa
Conditions	x1 = 0.097	x1 = 0.199	x1 = 0.298	x1 = 0.403	x1 = 0.497	x1 = 0.601	x1 = 0.701	x1 = 0.798	x1 = 0.9
298.15 K	4.186 ± 0.05	3.77 ± 0.046	3.34 ± 0.041	2.965 ± 0.036	2.667 ± 0.033	2.4 ± 0.03	2.192 ± 0.027	2.031 ± 0.025	1.922 ± 0.024
303.15 K	3.573 ± 0.043	3.237 ± 0.04	2.907 ± 0.036	2.611 ± 0.032	2.37 ± 0.029	2.156 ± 0.027	1.988 ± 0.025	1.866 ± 0.024	1.784 ± 0.023
308.15 K	3.092 ± 0.038	2.811 ± 0.035	2.537 ± 0.031	2.301 ± 0.029	2.114 ± 0.026	1.943 ± 0.024	1.815 ± 0.023	1.719 ± 0.022	1.663 ± 0.021

BrC(Br)Br + CCC(C)=O
viscosity [mPa·s]
Conditions	x1 = 0.1474	x1 = 0.1586	x1 = 0.3005	x1 = 0.3052	x1 = 0.5009	x1 = 0.5019	x1 = 0.6499	x1 = 0.6501	x1 = 0.8432	x1 = 0.8502
298 K, 101.3 kPa	–	0.583 ± 0.008	–	0.768 ± 0.01	1.072 ± 0.014	–	–	1.318 ± 0.017	1.626 ± 0.021	–
318 K, 101.33 kPa	0.4678 ± 0.039	–	0.6228 ± 0.039	–	–	0.8523 ± 0.039	1.038 ± 0.039	–	–	1.298 ± 0.04

BrC(Br)Br + Nc1ccccc1Cl
viscosity [mPa·s], 101 kPa
Conditions	x1 = 0.1006	x1 = 0.1969	x1 = 0.3023	x1 = 0.3984	x1 = 0.5023	x1 = 0.5997	x1 = 0.6951	x1 = 0.8013	x1 = 0.8983
298.15 K	2.948 ± 0.027	2.901 ± 0.027	2.784 ± 0.026	2.699 ± 0.025	2.585 ± 0.024	2.453 ± 0.023	2.342 ± 0.022	2.208 ± 0.02	2.096 ± 0.019
303.15 K	2.693 ± 0.026	2.616 ± 0.025	2.509 ± 0.024	2.425 ± 0.023	2.326 ± 0.022	2.244 ± 0.021	2.15 ± 0.02	2.045 ± 0.019	1.955 ± 0.018
308.15 K	2.378 ± 0.023	2.33 ± 0.023	2.267 ± 0.022	2.197 ± 0.021	2.122 ± 0.02	2.065 ± 0.019	1.981 ± 0.018	1.896 ± 0.017	1.82 ± 0.017
313.15 K	2.122 ± 0.021	2.102 ± 0.02	2.062 ± 0.02	1.995 ± 0.019	1.96 ± 0.018	1.896 ± 0.018	1.831 ± 0.017	1.764 ± 0.016	1.697 ± 0.016

CC12CC3CC(C1)CC(C)(C3)C2 + CCCCC1CCCCC1
viscosity [mPa·s], 100 kPa
Conditions	x1 = 0.083	x1 = 0.1716	x1 = 0.2652	x1 = 0.3625	x1 = 0.4617	x1 = 0.5636	x1 = 0.662	x1 = 0.7728	x1 = 0.8838
293.15 K	1.407 ± 0.011	1.518 ± 0.012	1.654 ± 0.012	1.802 ± 0.012	1.989 ± 0.013	2.215 ± 0.013	2.472 ± 0.014	2.797 ± 0.014	3.222 ± 0.015
298.15 K	1.293 ± 0.011	1.391 ± 0.011	1.512 ± 0.012	1.643 ± 0.012	1.805 ± 0.012	2.007 ± 0.013	2.229 ± 0.013	2.518 ± 0.014	2.885 ± 0.015
303.15 K	1.194 ± 0.011	1.281 ± 0.011	1.389 ± 0.011	1.506 ± 0.011	1.647 ± 0.012	1.828 ± 0.012	2.024 ± 0.013	2.272 ± 0.013	2.601 ± 0.014
313.15 K	1.03 ± 0.01	1.099 ± 0.011	1.187 ± 0.011	1.28 ± 0.011	1.393 ± 0.011	1.537 ± 0.011	1.692 ± 0.012	1.883 ± 0.012	2.145 ± 0.013
323.15 K	0.893 ± 0.01	0.951 ± 0.01	1.008 ± 0.01	1.088 ± 0.011	1.182 ± 0.011	1.289 ± 0.011	1.414 ± 0.011	1.583 ± 0.012	1.774 ± 0.012

BrC(Br)Br + OCCCl
viscosity [mPa·s], 101.3 kPa
Conditions	x1 = 0.099	x1 = 0.198	x1 = 0.301	x1 = 0.396	x1 = 0.498	x1 = 0.595	x1 = 0.702	x1 = 0.801	x1 = 0.896
298.15 K	2.878 ± 0.035	2.817 ± 0.035	2.587 ± 0.032	2.446 ± 0.03	2.3 ± 0.029	2.179 ± 0.027	2.067 ± 0.026	1.97 ± 0.025	1.915 ± 0.024
303.15 K	2.532 ± 0.031	2.487 ± 0.031	2.297 ± 0.029	2.191 ± 0.027	2.08 ± 0.026	1.982 ± 0.025	1.89 ± 0.024	1.825 ± 0.023	1.779 ± 0.022
308.15 K	2.237 ± 0.028	2.21 ± 0.028	2.055 ± 0.026	1.974 ± 0.025	1.884 ± 0.024	1.814 ± 0.023	1.746 ± 0.022	1.694 ± 0.021	1.666 ± 0.021
